One experiment deals with hiPSC-CM monolayers. The experiment in a line: Drug test on hiPSC-CM monolayers cultured on CNT-PDMS device arrays (contractile stress, beating rate, beating rhythm from CNT sensor resistance). Type of experiment: cell-based, human.
Another experiment concerns single hiPSC-CM. To be noted: 0.1 μM of OM, TFFB; cited from earlier work.

Method for hiPSC-CM monolayers: Once after hiPSC-CMs were seeded, the device array 10 was placed in a humidified 37° C. incubator with 5% CO2, and the electrical signal of the CNT sensors started to be recorded. A constant voltage of 2.5 V was applied to the CNT-PDMS sensors, and sensor signals were recorded with a sampling frequency of 10 Hz.
Drug stocks were kept at 4° C. prior to use. Drug tests were performed on hiPSC-CM monolayers during culture days between 10 and 14. […] After each drug addition, cells were incubated for 10 hours for each dose before CNT sensor signals were recorded to reflect the drug effect.
Each set of data was from 3 to 6 experiment repeats and presented as values of the mean and the standard error of the mean. For differential analysis, all statistics of recorded data was processed using Student's t-test with levels of 0.05, 0.1 when they were compared to the control group. All data sets passed Shapiro-Wilk normality tests and equal variance tests.
The contractile stress generated by cardiomyocytes monolayer during synchronous systole was calculated from the experimentally measured data (i.e., CNT sensor's electrical resistance change).

With `Cc1cccc(CCN2CCC(C(=O)c3ccc(NS(C)(=O)=O)cc3)CC2)n1` [E-4031], the contractile stress is 2.47±0.48 kPa in the experiment on hiPSC-CM monolayers (0.10 μM E-4031, n=3) and 2.39±1.38 kPa in the experiment with hiPSC-CM monolayers (0.60 μM E-4031, n=3, p>0.1).
Take `CC(C)NCC(O)c1ccc(O)c(O)c1` (centres unmarked) [Isoproterenol]: the “beating rate increased by” value in the experiment on hiPSC-CM monolayers (2.00 μM isoproterenol) was 13.6%. The “Contractile stress increased by” value in the experiment with hiPSC-CM monolayers (2.00 μM isoproterenol vs control) amounted to 69.4%. Further, the beating rate with hiPSC-CM monolayers (2.00 μM isoproterenol, n=3, p<0.05, control 1.17±0.068 Hz) turned out to be 1.33±0.081 Hz. Moreover, the contractile stress with hiPSC-CM monolayers (2.00 μM isoproterenol, n=3, control 2.34±0.093 kPa) is 3.963±0.532 kPa.
In turn, `COc1cc2c(cc1OC)CC(=O)N(CCCN(C)C[C@H]1Cc3cc(OC)c(OC)cc31)CC2` [Ivabradine] showed a beating rate in the experiment on hiPSC-CM monolayers (10.00 μM Ivabradine, n=3, p<0.05, before 1.16±0.32 Hz) of 0.81±0.30 Hz. The compound also came in with a contractile stress in the experiment with hiPSC-CM monolayers (10.00 μM Ivabradine, n=3, p>0.1, before 2.26±0.43 kPa) of 2.00±0.68 kPa.
On to `COC(=O)N1CCN(Cc2cccc(NC(=O)Nc3ccc(C)nc3)c2F)CC1` [OM, Omecamtiv mecarbil], for which the “contractile stress increase by” value in the experiment on hiPSC-CM monolayers (20 nM (0.02 μM) OM) was found to be 76%. In addition, the contractile stress with hiPSC-CM monolayers (20 nM (0.02 μM) OM, n=3, p<0.05, before 2.25±0.11 kPa) was 3.96±0.40 kPa. Also, the “amplitude of ΔR/R0” value in the experiment on hiPSC-CM monolayers (20 nM OM, n=3, p<0.05, before 1.69×10^−2±8.46×10^−4) is reported as 2.98×10^−2±2.97×10^−3. For the same compound, in the experiment on hiPSC-CM monolayers (20 nM OM, n=3, p>0.1, control 1.11±0.25 Hz), the beating rate is listed as 1.13±0.31 Hz. For the same compound, in the experiment with single hiPSC-CM, the “Contractility generated by a single cardiomyocyte increased by” value is listed as 16.7%.
In the case of `COc1ccc(CCN(C)CCCC(C#N)(c2ccc(OC)c(OC)c2)C(C)C)cc1OC` (centres unmarked) [Verapamil], in the experiment with hiPSC-CM monolayers (0.20 μM Verapamil, n=3, before 2.34±9.31×10^−2 kPa), the contractile stress is reported as 1.15±1.31×10^−1 kPa.

The record behind these values is patent US12699083B2, “Device for continuous measurement of cardiac activity” (The Hospital for Sick Children, priority 2018, dated 2026).
